Legend:
Format in all cases: binding
[1] = target: TEAD2 YAP50-100 (Homo sapiens, UniProt Q15562); assay: TEAD2-YAP HTRF (TR-FRET) protein-protein interaction assay; conditions: TEAD2, YAP peptide 50-100, HTRF; for EC50: read-out: TEAD2 YAP50-100 HTRF combined: EC50
Outline: (§1)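 Compounds were given 30 min to bind Eu anti-His-labelled TEAD (His-tagged, aa 217-447) before streptavidin-XL665-coupled biotin-YAP 50-100 or biotin-TAZ 13-57 peptide went in for a further 60 min at room temperature. Loss of 665/615 nm TR-FRET ratio gave IC50/EC50 via four-parameter curve fit.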

[2] = target: TEAD4 TAZ (amino acids 13-57) (Homo sapiens, UniProt Q15561); assay: TEAD4-TAZ HTRF (TR-FRET) protein-protein interaction assay; conditions: for TEAD4 TAZ HTRF combined: Max % Inhibition: TEAD4, TAZ peptide; for EC50: TEAD4-TAZ HTRF, TR-FRET 665 nm/615 nm, read-out: TEAD4 TAZ HTRF combined: EC50
Outline: as §1

[3] = target: TEAD1 TAZ (amino acids 13-57) (Homo sapiens, UniProt P28347); assay: TEAD1-TAZ HTRF (TR-FRET) protein-protein interaction assay; conditions: for TEAD1 TAZ HTRF combined: Max % Inhibition: TEAD1, TAZ peptide; for EC50: TEAD1-TAZ HTRF, TR-FRET 665 nm/615 nm, read-out: TEAD1 TAZ HTRF combined: EC50
Outline: as §1

[4] = target: TEAD2 TAZ (amino acids 13-57) (Homo sapiens, UniProt Q15562); assay: TEAD2-TAZ HTRF (TR-FRET) protein-protein interaction assay; conditions: for TEAD2 TAZ HTRF combined: Max % Inhibition: TEAD2, TAZ peptide; for EC50: TEAD2-TAZ HTRF, TR-FRET 665 nm/615 nm, read-out: TEAD2 TAZ HTRF combined: EC50
Outline: as §1

[5] = target: TEAD1 YAP50-100 (Homo sapiens, UniProt P28347); assay: TEAD1-YAP HTRF (TR-FRET) protein-protein interaction assay; conditions: TEAD1, YAP peptide 50-100, HTRF; for EC50: read-out: TEAD1 YAP50-100 HTRF combined: EC50
Outline: as §1

[6] = target: TEAD4 YAP50-100 (Homo sapiens, UniProt Q15561); assay: TEAD4-YAP HTRF (TR-FRET) protein-protein interaction assay; conditions: TEAD4, YAP peptide 50-100, HTRF; for EC50: read-out: TEAD4 YAP50-100 HTRF combined: EC50
Outline: as §1

[7] = target: TEAD3 TAZ (amino acids 13-57) (Homo sapiens, UniProt Q99594); assay: TEAD3-TAZ HTRF (TR-FRET) protein-protein interaction assay; conditions: for TEAD3 TAZ HTRF combined: Max % Inhibition: TEAD3, TAZ peptide; for EC50: TEAD3-TAZ HTRF, TR-FRET 665 nm/615 nm, read-out: TEAD3 TAZ HTRF combined: EC50
Outline: as §1

[8] = target: TEAD3 YAP50-100 (Homo sapiens, UniProt Q99594); assay: TEAD3-YAP HTRF (TR-FRET) protein-protein interaction assay; conditions: TEAD3, YAP peptide 50-100, HTRF; for EC50: read-out: TEAD3 YAP50-100 HTRF combined: EC50
Outline: as §1

Chain of TEAD1 TAZ (amino acids 13-57) (P28347 167-426 limits assumed): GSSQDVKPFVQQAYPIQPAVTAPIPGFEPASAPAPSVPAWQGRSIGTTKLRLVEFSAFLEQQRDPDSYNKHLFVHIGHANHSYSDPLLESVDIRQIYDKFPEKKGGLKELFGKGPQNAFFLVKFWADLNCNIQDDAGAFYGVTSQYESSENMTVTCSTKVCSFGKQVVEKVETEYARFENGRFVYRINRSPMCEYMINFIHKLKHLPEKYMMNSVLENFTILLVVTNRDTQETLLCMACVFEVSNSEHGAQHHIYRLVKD
Chain of TEAD1 YAP50-100 (P28347 167-426 limits assumed): as above
Chain of TEAD4 TAZ (amino acids 13-57) (Q15561 217-434 limits assumed): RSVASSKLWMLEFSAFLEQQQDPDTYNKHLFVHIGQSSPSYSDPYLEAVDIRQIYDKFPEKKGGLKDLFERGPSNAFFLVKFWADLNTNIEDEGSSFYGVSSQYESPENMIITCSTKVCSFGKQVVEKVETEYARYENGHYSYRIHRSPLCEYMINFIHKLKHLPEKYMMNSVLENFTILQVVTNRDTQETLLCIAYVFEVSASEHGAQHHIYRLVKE
Chain of TEAD4 YAP50-100 (Q15561 217-434 limits assumed): as above
Chain of TEAD3 YAP50-100 (Q99594 173-435 limits assumed): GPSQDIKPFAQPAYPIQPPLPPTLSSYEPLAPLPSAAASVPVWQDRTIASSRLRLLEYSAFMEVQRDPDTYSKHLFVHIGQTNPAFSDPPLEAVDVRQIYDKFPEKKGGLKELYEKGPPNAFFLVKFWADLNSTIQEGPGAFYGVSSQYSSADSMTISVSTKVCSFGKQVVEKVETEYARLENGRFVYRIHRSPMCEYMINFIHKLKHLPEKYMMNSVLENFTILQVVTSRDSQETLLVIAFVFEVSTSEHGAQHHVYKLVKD
Chain of TEAD3 TAZ (amino acids 13-57) (Q99594 173-435 limits assumed): as above
Chain of TEAD2 YAP50-100 (Q15562 217-447): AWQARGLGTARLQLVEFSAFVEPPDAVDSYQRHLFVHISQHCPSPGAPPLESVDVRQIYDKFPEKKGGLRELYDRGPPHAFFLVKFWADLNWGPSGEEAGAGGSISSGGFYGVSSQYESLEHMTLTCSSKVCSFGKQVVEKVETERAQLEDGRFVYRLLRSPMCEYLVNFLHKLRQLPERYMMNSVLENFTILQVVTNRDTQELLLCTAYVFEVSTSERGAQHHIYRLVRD
Chain of TEAD2 TAZ (amino acids 13-57) (Q15562 217-447): as above

| SMILES | TEAD2 YAP50-100 HTRF combined: Max % Inhibition [1] | EC50 [1] | TEAD4 TAZ HTRF combined: Max % Inhibition [2] | EC50 [2] | TEAD1 TAZ HTRF combined: Max % Inhibition [3] | EC50 [3] | TEAD2 TAZ HTRF combined: Max % Inhibition [4] | EC50 [4] | TEAD1 YAP50-100 HTRF combined: Max % Inhibition [5] | EC50 [5] | TEAD4 YAP50-100 HTRF combined: Max % Inhibition [6] | EC50 [6] | TEAD3 TAZ HTRF combined: Max % Inhibition [7] | EC50 [7] | TEAD3 YAP50-100 HTRF combined: Max % Inhibition [8] | EC50 [8] |
| --- | --- | --- | --- | --- | --- | --- | --- | --- | --- | --- | --- | --- | --- | --- | --- | --- |
| O=C(c1c(-c2cnccn2)nn2c(=O)cc(-c3ccc(C4CCCCC4)cc3)[nH]c12)N1CC(CF)C1 [Compound 17, 5-(4-Cyclohexylphenyl)-3-(3-(fluoromethyl)azetidine-1-carbonyl)-2-(pyrazin-2-yl)pyrazolo[1,5-a]pyrimidin-7(4H)-one] | 61.6% | 10 nM | 34.9% | 30 nM | 60.6% | 40 nM | 60.9% | 10 nM | 69.0% | 30 nM | 42.0% | 40 nM | 53.9% | 60 nM | 63.3% | 60 nM |
| Cc1ccnc(-c2nn3c(=O)cc(-c4ccc(C5CCCCC5)cc4)[nH]c3c2C(=O)N2CC(CF)C2)c1 [Compound 18, 5-(4-Cyclohexylphenyl)-3-(3-(fluoromethyl)azetidine-1-carbonyl)-2-(4-methylpvridin-2-yl)pyrazolo[1,5-a]pyrimidin-7(4H)-one] | 58.5% | 10 nM | 49.0% | 20 nM | 67.0% | 60 nM | 55.5% | 10 nM | 73.0% | 50 nM | 47.0% | 20 nM | 43.0% | 90 nM | 54.5% | 90 nM |
| O=C(c1c(-c2ncco2)nn2c(=O)cc(-c3ccc(C4CCCCC4)cc3)[nH]c12)N1CC(CF)C1 [Compound 19, 5-(4-Cyclohexylphenyl)-3-(3-(fluoromethyl)azetidine-1-carbonyl)-2-(oxazol-2-yl)pyrazolo[1,5-a]pyrimidin-7(4H)-one] | 67.5% | 10 nM | 38.5% | 50 nM | 59.5% | 70 nM | 63.5% | 10 nM | 69.0% | 40 nM | 46.0% | 60 nM | 53.0% | 60 nM | 60.0% | 60 nM |
| Cc1nccnc1-c1nn2c(=O)cc(-c3ccc(C4CCCCC4)cc3)[nH]c2c1C(=O)N(C)C [Compound 20, 5-(4-Cyclohexylphenyl)-N,N-dimethyl-2-(3-methylpyrazin-2-yl)-7-oxo-4,7-dihydropyrazolo[1,5-a]pyrimidine-3-carboxamide] | 53.5% | 20 nM | 34.5% | 940 nM | 63.0% | 50 nM | 50.5% | 20 nM | 72.0% | 50 nM | 37.0% | 820 nM | 56.5% | 70 nM | 65.5% | 50 nM |
| Cc1nccnc1-c1nn2c(=O)cc(-c3ccc(C4CCCCC4)c(F)c3)[nH]c2c1C(=O)N1CC(CF)C1 [Compound 21, 5-(4-cyclohexyl-3-fluorophenyl)-3-(3-(fluoromethyl)azetidine-1-carbonyl)-2-(3-methylpyrazin-2-yl)pyrazolo[1,5-a]pyrimidin-7(4H)-one] | 62.5% | 10 nM | 51.0% | 30 nM | 71.5% | 40 nM | 61.5% | 10 nM | 74.0% | 40 nM | 49.5% | 30 nM | 69.5% | 90 nM | 69.5% | 80 nM |
| O=C(c1c(-c2ncccn2)nn2c(=O)cc(-c3ccc(C4CCCCC4)c(F)c3)[nH]c12)N1CC(CF)C1 [Compound 22, 5-(4-Cyclohexyl-3-fluorophenyl)-3-(3-(fluoromethyl)azetidine-1-carbonyl)-2-(pyrimidin-2-yl)pyrazolo[1,5-a]pyrimidin-7(4H)-one] | 58.0% | 20 nM | 48.0% | 60 nM | 64.0% | 110 nM | 57.5% | 20 nM | 69.0% | 140 nM | 45.5% | 70 nM | 57.0% | 210 nM | 60.0% | 210 nM |
| O=C(c1c(-c2cnccn2)nn2c(=O)cc(-c3ccc(C4CCCCC4)c(F)c3)[nH]c12)N1CC(CF)C1 [Compound 23, 5-(4-Cyclohexyl-3-fluorophenyl)-3-(3-(fluoromethyl)azetidine-1-carbonyl)-2-(pyrazin-2-yl)pyrazolo[1,5-a]pyrimidin-7(4H)-one] | 55.5% | 10 nM | 35.0% | 50 nM | 61.5% | 70 nM | 55.5% | 10 nM | 70.0% | 40 nM | 39.5% | 50 nM | 56.5% | 110 nM | 64.0% | 110 nM |
| O=C(c1c(-c2ncccn2)nn2c(=O)cc(-c3ccc(CC4CCCC4)cc3)[nH]c12)N1CC(CF)C1 [Compound 24, 5-(4-(Cyclopentylmethyl)phenyl)-3-(3-(fluoromethyl)azetidine-1-carbonyl)-2-(pyrimidin-2-yl) pyrazolo[1,5-a]pyrimidin-7(4H)-one] | 66.0% |  | 54.0% | 10 nM | 57.0% | 20 nM | 66.5% |  | 63.0% | 20 nM | 51.0% | 10 nM | 43.0% | 30 nM | 52.0% | 20 nM |
| O=C(c1c(-c2cnccn2)nn2c(=O)cc(-c3ccc(CC4CCCC4)cc3)[nH]c12)N1CC(CF)C1 [Compound 25, 5-(4-(Cyclopentylmethyl)phenyl)-3-(3-(fluoromethyl)azetidine-1-carbonyl)-2-(pyrazin-2-yl)pyrazolo[1,5-a]pyrimidin-7(4H)-one] | 63.5% | 10 nM | 47.0% | 20 nM | 52.0% | 40 nM | 62.0% | 10 nM | 60.0% | 30 nM | 45.5% | 20 nM | 44.0% | 40 nM | 50.0% | 40 nM |
